Results: patent US20230085307A1, “PYRIDAZINONE COMPOUND AND HERBICIDE” (NISSAN CHEMICAL CORPORATION, priority 2019, published 2023)

What was measured:
[1] = test system: barnyard grass; experiment: Test Example 3: herbicidal effect by foliage application, Wagner pot (Table 18, symbol H); assay type: in vivo, barnyard grass (Echinochloa crus-galli); details: 320 g/ha
In short: (§1)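 Plants were sown in alluvial soil held under 0.1–0.5 cm standing water and grown 14 days in a greenhouse at 25–30 °C. An emulsifiable formulation, water-diluted to the set dose, was then sprayed onto the foliage, and effects were scored three weeks later using previously defined criteria.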

[2] = test system: Chinese sprangletop; experiment: Test Example 3: herbicidal effect by foliage application, Wagner pot (Table 18, symbol D); assay type: in vivo, chinese sprangletop (Leptochloa chinensis); details: 320 g/ha
In short: as §1

[3] = test system: rice flat sedge; experiment: Test Example 3: herbicidal effect by foliage application, Wagner pot (Table 18, symbol E); assay type: in vivo, rice flat sedge (Cyperus iria); details: 320 g/ha
In short: as §1

[4] = test system: southern crabgrass; experiment: Test Example 4: herbicidal effect by soil treatment (Table 19, symbol F); assay type: in vivo, southern crabgrass (Digitaria ciliaris); details: amount of applied herbicide 320 g/ha
In short: (§2)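 Three weeks of greenhouse growth at 25° C. to 30° C. followed a uniform surface spray of water-diluted emulsion at a predetermined herbicide amount. Seeds had been sown beforehand under about 1.5 cm of sterilized diluvial soil. Grading followed criteria set out in an earlier test.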

[5] = test system: green foxtail; experiment: Test Example 4: herbicidal effect by soil treatment (Table 19, symbol G); assay type: in vivo, green foxtail (Setaria viridis); details: amount of applied herbicide 320 g/ha
In short: as §2

[6] = test system: barnyard grass; experiment: Test Example 4: herbicidal effect by soil treatment (Table 19, symbol H); assay type: in vivo, barnyard grass (Echinochloa crus-galli); details: amount of applied herbicide 320 g/ha
In short: as §2

[7] = test system: wild oat; experiment: Test Example 4: herbicidal effect by soil treatment (Table 19, symbol I); assay type: in vivo, wild oat (Avena fatua); details: amount of applied herbicide 320 g/ha
In short: as §2

[8] = test system: blackgrass; experiment: Test Example 4: herbicidal effect by soil treatment (Table 19, symbol J); assay type: in vivo, blackgrass (Alopecurus myosuroides); details: amount of applied herbicide 320 g/ha
In short: as §2

[9] = test system: Italian ryegrass; experiment: Test Example 4: herbicidal effect by soil treatment (Table 19, symbol K); assay type: in vivo, Italian ryegrass (Lolium multiflorum); details: amount of applied herbicide 320 g/ha
In short: as §2

[10] = test system: windgrass; experiment: Test Example 4: herbicidal effect by soil treatment (Table 19, symbol L); assay type: in vivo, windgrass (Apera spica-venti); details: amount of applied herbicide 320 g/ha
In short: as §2

[11] = test system: velvetleaf; experiment: Test Example 4: herbicidal effect by soil treatment (Table 19, symbol M); assay type: in vivo, velvetleaf (Abutilon theophrasti); details: amount of applied herbicide 320 g/ha
In short: as §2

[12] = test system: redroot pigweed; experiment: Test Example 4: herbicidal effect by soil treatment (Table 19, symbol N); assay type: in vivo, redroot pigweed (Amaranthus retroflexus); details: amount of applied herbicide 320 g/ha
In short: as §2

[13] = test system: lambsquarters; experiment: Test Example 4: herbicidal effect by soil treatment (Table 19, symbol O); assay type: in vivo, lambsquarters (Chenopodium album); details: amount of applied herbicide 320 g/ha
In short: as §2

[14] = test system: chickweed; experiment: Test Example 4: herbicidal effect by soil treatment (Table 19, symbol P); assay type: in vivo, common chickweed (Stellaria media); details: amount of applied herbicide 320 g/ha
In short: as §2

[15] = test system: false cleavers; experiment: Test Example 4: herbicidal effect by soil treatment (Table 19, symbol Q); assay type: in vivo, false cleavers (Galium spurium); details: amount of applied herbicide 320 g/ha
In short: as §2

[16] = test system: persian speedwell; experiment: Test Example 4: herbicidal effect by soil treatment (Table 19, symbol R); assay type: in vivo, Persian speedwell (Veronica persica); details: amount of applied herbicide 320 g/ha
In short: as §2

[17] = test system: southern crabgrass; experiment: Test Example 5: herbicidal effect by foliage application, plastic box (Table 20, symbol F); assay type: in vivo, southern crabgrass (Digitaria ciliaris); details: foliage application, 320 g/ha, three weeks after application
In short: (§3)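 Plants sown in sterilized diluvial soil and grown 14 days in a greenhouse at 25° C to 30° C, then sprayed on the foliage with the compound's emulsion diluted in water to a predetermined herbicide amount. Injury to weeds and crops scored three weeks after application on a visual rating scale.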

[18] = test system: green foxtail; experiment: Test Example 5: herbicidal effect by foliage application, plastic box (Table 20, symbol G); assay type: in vivo, green foxtail (Setaria viridis); details: foliage application, 320 g/ha, three weeks after application
In short: as §3

[19] = test system: barnyard grass; experiment: Test Example 5: herbicidal effect by foliage application, plastic box (Table 20, symbol H); assay type: in vivo, barnyard grass (Echinochloa crus-galli); details: foliage application, 320 g/ha, three weeks after application
In short: as §3

[20] = test system: wild oat; experiment: Test Example 5: herbicidal effect by foliage application, plastic box (Table 20, symbol I); assay type: in vivo, wild oat (Avena fatua); details: foliage application, 320 g/ha, three weeks after application
In short: as §3

[21] = test system: blackgrass; experiment: Test Example 5: herbicidal effect by foliage application, plastic box (Table 20, symbol J); assay type: in vivo, blackgrass (Alopecurus myosuroides); details: foliage application, 320 g/ha, three weeks after application
In short: as §3

[22] = test system: Italian ryegrass; experiment: Test Example 5: herbicidal effect by foliage application, plastic box (Table 20, symbol K); assay type: in vivo, Italian ryegrass (Lolium multiflorum); details: foliage application, 320 g/ha, three weeks after application
In short: as §3

[23] = test system: windgrass; experiment: Test Example 5: herbicidal effect by foliage application, plastic box (Table 20, symbol L); assay type: in vivo, windgrass (Apera spica-venti); details: foliage application, 320 g/ha, three weeks after application
In short: as §3

[24] = test system: velvetleaf; experiment: Test Example 5: herbicidal effect by foliage application, plastic box (Table 20, symbol M); assay type: in vivo, velvetleaf (Abutilon theophrasti); details: foliage application, 320 g/ha, three weeks after application
In short: as §3

[25] = test system: redroot pigweed; experiment: Test Example 5: herbicidal effect by foliage application, plastic box (Table 20, symbol N); assay type: in vivo, redroot pigweed (Amaranthus retroflexus); details: foliage application, 320 g/ha, three weeks after application
In short: as §3

[26] = test system: lambsquarters; experiment: Test Example 5: herbicidal effect by foliage application, plastic box (Table 20, symbol O); assay type: in vivo, lambsquarters (Chenopodium album); details: foliage application, 320 g/ha, three weeks after application
In short: as §3

[27] = test system: chickweed; experiment: Test Example 5: herbicidal effect by foliage application, plastic box (Table 20, symbol P); assay type: in vivo, common chickweed (Stellaria media); details: foliage application, 320 g/ha, three weeks after application
In short: as §3

[28] = test system: false cleavers; experiment: Test Example 5: herbicidal effect by foliage application, plastic box (Table 20, symbol Q); assay type: in vivo, false cleavers (Galium spurium); details: foliage application, 320 g/ha, three weeks after application
In short: as §3

[29] = test system: persian speedwell; experiment: Test Example 5: herbicidal effect by foliage application, plastic box (Table 20, symbol R); assay type: in vivo, Persian speedwell (Veronica persica); details: foliage application, 320 g/ha, three weeks after application
In short: as §3

COc1ccc(-c2sc3cc(OC)ccc3c2-c2c(O)c(C)nn(C)c2=O)cc1 [3-068]
herbicidal effect on barnyard grass (H) [1]: 3 (Herbicidal rate of 40% or more and less than 70%) | herbicidal effect on Chinese sprangletop (D) [2]: 2 (Herbicidal rate of 20% or more and less than 40%) | herbicidal effect on rice flat sedge (E) [3]: 3 (Herbicidal rate of 40% or more and less than 70%) | F: southern crabgrass, herbicidal effect grade [4]: 0 (Herbicidal rate of 5% or less (almost no effect)) | G: green foxtail, herbicidal effect grade [5]: 0 (Herbicidal rate of 5% or less (almost no effect)) | H: barnyard grass, herbicidal effect grade [6]: 0 (Herbicidal rate of 5% or less (almost no effect)) | I: wild oat, herbicidal effect grade [7]: 0 (Herbicidal rate of 5% or less (almost no effect)) | J: blackgrass, herbicidal effect grade [8]: 0 (Herbicidal rate of 5% or less (almost no effect)) | K: Italian ryegrass, herbicidal effect grade [9]: 2 (Herbicidal rate of 20% or more and less than 40%) | L: windgrass, herbicidal effect grade [10]: 0 (Herbicidal rate of 5% or less (almost no effect)) | M: velvetleaf, herbicidal effect grade [11]: 0 (Herbicidal rate of 5% or less (almost no effect)) | N: redroot pigweed, herbicidal effect grade [12]: 4 (Herbicidal rate of 70% or more and less than 90%) | O: lambsquarters, herbicidal effect grade [13]: 4 (Herbicidal rate of 70% or more and less than 90%) | P: chickweed, herbicidal effect grade [14]: 2 (Herbicidal rate of 20% or more and less than 40%) | Q: false cleavers, herbicidal effect grade [15]: 4 (Herbicidal rate of 70% or more and less than 90%) | R: persian speedwell, herbicidal effect grade [16]: 5 (Herbicidal rate of 90% or more (almost completely withered)) | F: southern crabgrass, herbicidal effect grade [17]: 0 (Herbicidal rate of 5% or less (almost no effect)) | G: green foxtail, herbicidal effect grade [18]: 0 (Herbicidal rate of 5% or less (almost no effect)) | H: barnyard grass, herbicidal effect grade [19]: 0 (Herbicidal rate of 5% or less (almost no effect)) | I: wild oat, herbicidal effect grade [20]: 0 (Herbicidal rate of 5% or less (almost no effect)) | J: blackgrass, herbicidal effect grade [21]: 1 (Herbicidal rate of 5% or more and less than 20%) | K: Italian ryegrass, herbicidal effect grade [22]: 3 (Herbicidal rate of 40% or more and less than 70%) | L: windgrass, herbicidal effect grade [23]: 0 (Herbicidal rate of 5% or less (almost no effect)) | M: velvetleaf, herbicidal effect grade [24]: 4 (Herbicidal rate of 70% or more and less than 90%) | N: redroot pigweed, herbicidal effect grade [25]: 3 (Herbicidal rate of 40% or more and less than 70%) | O: lambsquarters, herbicidal effect grade [26]: 5 (Herbicidal rate of 90% or more (almost completely withered)) | P: chickweed, herbicidal effect grade [27]: 5 (Herbicidal rate of 90% or more (almost completely withered)) | Q: false cleavers, herbicidal effect grade [28]: 5 (Herbicidal rate of 90% or more (almost completely withered)) | R: persian speedwell, herbicidal effect grade [29]: 5 (Herbicidal rate of 90% or more (almost completely withered))

COc1ccc2c(-c3c(O)c(C)nn(C)c3=O)c(-c3ccc(OC)c(OC)c3)sc2c1 [3-080]
herbicidal effect on barnyard grass (H) [1]: 1 (Herbicidal rate of 5% or more and less than 20%) | herbicidal effect on Chinese sprangletop (D) [2]: 0 (Herbicidal rate of 5% or less (almost no effect)) | herbicidal effect on rice flat sedge (E) [3]: 4 (Herbicidal rate of 70% or more and less than 90%) | F: southern crabgrass, herbicidal effect grade [4]: 0 (Herbicidal rate of 5% or less (almost no effect)) | G: green foxtail, herbicidal effect grade [5]: 0 (Herbicidal rate of 5% or less (almost no effect)) | H: barnyard grass, herbicidal effect grade [6]: 0 (Herbicidal rate of 5% or less (almost no effect)) | I: wild oat, herbicidal effect grade [7]: 0 (Herbicidal rate of 5% or less (almost no effect)) | J: blackgrass, herbicidal effect grade [8]: 0 (Herbicidal rate of 5% or less (almost no effect)) | K: Italian ryegrass, herbicidal effect grade [9]: 0 (Herbicidal rate of 5% or less (almost no effect)) | L: windgrass, herbicidal effect grade [10]: 0 (Herbicidal rate of 5% or less (almost no effect)) | M: velvetleaf, herbicidal effect grade [11]: 0 (Herbicidal rate of 5% or less (almost no effect)) | N: redroot pigweed, herbicidal effect grade [12]: 0 (Herbicidal rate of 5% or less (almost no effect)) | O: lambsquarters, herbicidal effect grade [13]: 0 (Herbicidal rate of 5% or less (almost no effect)) | P: chickweed, herbicidal effect grade [14]: 0 (Herbicidal rate of 5% or less (almost no effect)) | Q: false cleavers, herbicidal effect grade [15]: 0 (Herbicidal rate of 5% or less (almost no effect)) | R: persian speedwell, herbicidal effect grade [16]: 2 (Herbicidal rate of 20% or more and less than 40%) | F: southern crabgrass, herbicidal effect grade [17]: 0 (Herbicidal rate of 5% or less (almost no effect)) | G: green foxtail, herbicidal effect grade [18]: 0 (Herbicidal rate of 5% or less (almost no effect)) | H: barnyard grass, herbicidal effect grade [19]: 0 (Herbicidal rate of 5% or less (almost no effect)) | I: wild oat, herbicidal effect grade [20]: 0 (Herbicidal rate of 5% or less (almost no effect)) | J: blackgrass, herbicidal effect grade [21]: 2 (Herbicidal rate of 20% or more and less than 40%) | K: Italian ryegrass, herbicidal effect grade [22]: 4 (Herbicidal rate of 70% or more and less than 90%) | L: windgrass, herbicidal effect grade [23]: 0 (Herbicidal rate of 5% or less (almost no effect)) | M: velvetleaf, herbicidal effect grade [24]: 1 (Herbicidal rate of 5% or more and less than 20%) | N: redroot pigweed, herbicidal effect grade [25]: 0 (Herbicidal rate of 5% or less (almost no effect)) | O: lambsquarters, herbicidal effect grade [26]: 1 (Herbicidal rate of 5% or more and less than 20%) | P: chickweed, herbicidal effect grade [27]: 5 (Herbicidal rate of 90% or more (almost completely withered)) | Q: false cleavers, herbicidal effect grade [28]: 0 (Herbicidal rate of 5% or less (almost no effect)) | R: persian speedwell, herbicidal effect grade [29]: 5 (Herbicidal rate of 90% or more (almost completely withered))
